Values joined by “and” are separate entries in the source; they are usually repeats but may differ in a detail not shown here. Equal entries are not always repeated.
Tested on: B16F10 melanoma colonies
Test: Melanoma-colony formation in the lungs
Type: in vivo, mouse
Description: Murine B16F10 melanoma cell line with a strong metastatic property to form tumour colonies in the lungs was obtained from Dr. Longenecker, Department of Immunology, University of Alberta. Such cell line is well recognized and readily available as reported in Miura et al, supra. The cells were grown in T-75 flasks in dulbecco's MEM available from Gipco Lab Inc., Grand Island, N.Y., supplemented with 10% fetal calf serum, also obtained from Gipco, penicillin (100 μ/ml) and streptomycin (100 μg/ml). The cells were incubated at 37° C. in humidified atmosphere of 5% CO2 in air. […] Viable cells were identified by trypan blue dye exclusion and counted. The cell suspension was diluted to the desired concentration. […] On day zero, the mice were inoculated via the lateral tail vein with 5×10^4 cells in 0.2 ml of N saline. The test drugs were dissolved in normal saline, sterilized by membrane filtration, and administered in a dose of 300 mg/Kg (4 -S-CAP) or 900 mg/Kg (N-Ac-4-S-CAP); starting on day five, the control solution or drug was injected i.p. daily for 14 days. On day 26, the mice were killed by cervical dislocation, their lungs were removed, and the number of melanoma colonies was counted under a dissecting microscope. The results were expressed as percentage reduction in the number of colonies: [a-b/a]×100, where a=colonies in control group and b=colonies in experimental group.

NCCSc1ccc(O)cc1 [4-S-CAP, 4-S-cysteaminylphenol, reference compound]
Colonies, % control (300 mg/kg i.p. daily for 14 days, day 26): 32.4% and 30%
Number of B16F10 melanoma colonies (in words): significantly reduced

Reference: patent publication US5395611A, “Phenolic amine depigmenting and antimelanoma agents” (The Governors of the University of Alberta, priority 1992, dated 1995)
